The values that follow come from patent US20010051131A1, “METHODS FOR DELIVERING BIOACTIVE AGENTS” (priority 1996, published 2001).

One assay has as its system glioblastoma mutiformae. The format is in vivo.
In a further assay the test system is prostate cancer. The experiment in a line: Delivery of a radiation sensitizer to treat prostate cancer with air-filled polylactic acid microspheres and ultrasound. The note with it: 100 mg/m^2 IV over 1 hour, microspheres 5×10^7/minute, endorectal ultrasound 1.5 MegaPascals for 30 minutes.

Description for glioblastoma mutiformae: An acoustically active composition is prepared in a 2 mL vial from an aqueous mixture of phosphatidylcholine vesicles filled with perfluorobutane gas in a manner as described above. The resulting compositions contains about 2×10^9 gas filled vesicles. The vial of gas filled vesicles will be diluted into a 100 mL volume of normal saline such that the final gas filled vesicle concentration is about 2×10^7 gas filled vesicles/mL.
The scalp of a patient suffering from glioblastoma mutiformae will be shaved prior to the procedure. The patient will receive an intravenous infusion of 200 mg/M^2 of Carmustine (BCNU) over a period of about 30 minutes. Fifteen minutes after initiating IV injection of Carmustine, IV infusion of the gas filled vesicle composition will be initiated at a rate of about 2 mL per minute (or about 4×10^7 gas filled vesicles per minute). One minute after initiation of infusion of gas filled vesicles, a 200-kilohertz ultrasound transducer will be turned on, and using an acoustic gel, it will be applied to the shaved area of the scalp. The transducer is focused on the glioblastoma. The energy of the transducer will be adjusted to a peak negative pressure of about 2.5 megaPascals and maintained as such for about 30 minutes (for about 15 minutes after infusion of Carmustine has ceased). The infusion of gas filled vesicles will then be terminated.

As for `O=NN(CCCl)C(=O)NCCCl` [Carmustine], the tumor control entry in the assay on glioblastoma mutiformae (200 mg/M^2 IV over about 30 minutes, gas filled vesicles about 2 mL per minute, 200-kilohertz ultrasound, 2.5 megaPascals) is reported as “improved tumor control”. Besides, in the assay with glioblastoma mutiformae (in vivo, iv), the “delivery of the drug into the tumor tissue” value is given as “enhanced delivery of the drug into the tumor tissue”.

On to `CC(=O)O[C@H]1C(=O)[C@@]2(C)[C@H]([C@H](OC(=O)c3ccccc3)[C@]3(O)C[C@H](OC(=O)[C@H](O)[C@@H](NC(=O)c4ccccc4)c4ccccc4)C(C)=C1C3(C)C)[C@]1(OC(C)=O)CO[C@@H]1C[C@@H]2O` [Paclitaxel], for which, in the assay with prostate cancer, the “delivery of drug within the prostate gland” value was “increased delivery of drug within the prostate gland”. Also, the tumor control entry in the assay with prostate cancer (then radiation therapy) is “Improved tumor control”.
